Experimental data from patent EP0634173B1, “24-epi-1-alpha-hydroxyvitamin D2 for treating osteoporosis” (WISCONSIN ALUMNI RESEARCH FOUNDATION, priority 1993, dated 1995).
Where two headings read alike, the source gives them in different places. Marks after values point to notes of the source that are not given here.

Columns and labels:
[1] = test system: human leukemia cells (HL-60 cells); test: HL-60 cell differentiation, text summary over both NBT-reduction and phagocytosis assays; format: cell-based; conditions: HL-60 cell differentiation activity
Protocol: The assays were conducted as described by Ostrem et al (J. Biol. Chem. 262, 14164-14171, 1987), and by DeLuca et al (U. S. Patent 4,717,721). […] Even at doses as low as 10^-8M, this compound produced approximately 64-67% differentiation in the 4-day trial period in both the NBT-reduction and the phagocytosis assay. […] Thus, 1α-hydroxy-24-epi-vitamin D2 has little or no activity in promoting differentiation of promyelocytes to monocytes.

[2] = test system: human leukemia cells (HL-60 cells); conditions: cited from earlier work
[3] = test system: human leukemia cells (HL-60 cells); conditions: 4-day trial period, cited from earlier work
[4] = test system: human leukemia cells (HL-60 cells); conditions: 4-day trial period, cited from earlier work; remark: listed apart in the source
[5] = test system: rats made osteoporotic by ovariectomy; test: Restoration of bone mass (femur ash) in oophorectomized rats; format: in vivo, rat; conditions: for restoration of bone mass: result in words, previously tested, compared with the compound of the present study; for Total Femur Ash (mg ± SEM) / Ash (% ± SEM): oophorectomized rats, 325 pmol/day for 20 days by Alzet osmotic minipump; for Ash (% ± SEM): femur
Description: At 13 weeks, the animals were either sham-operated or oophorectomized. They continued on the same diet for an additional 16 weeks. Ouring the last 20 days, the animals received the indicated dose of either 1α-hydroxyvitamin D2 or 24-epi-1α-hydroxyvitamin D2, in propylene glycol, delivered each day by Alzet osmotic minipump for a period of 20 days. The animals were killed and their femurs were used to determine total bone ash and percent ash. There were 6 animals in each group and the data are expressed as average ± standard error of the mean. Oophorectomy results in a lack of estrogen reminiscent of the menopausal state.

vitamin D-deficient rat [6] = conditions: cited from earlier work; for Bone Mobilization Serum Ca: 20 h prior to sacrifice, vitamin D-free, low calcium diet; for activity in mobilizing calcium from bone: result in words, animals on a low calcium diet
vitamin D-deficient rat [7] = conditions: cited from earlier work; for Ca Transport S/M Ratio: 20 h prior to sacrifice, vitamin D-free, low calcium diet

SMILES	differentiation ([2]; 1-2 x 10^-8M)	differentiation ([2]; 10^-7M)	% Differentiation Phagocytosis ([3]; 1 x 10^-7 M) [%]	% Differentiation Phagocytosis ([3]; 1 x 10^-8 M) [%]	% Differentiation Phagocytosis ([3]; 2 x 10^-8 M) [%]	% Differentiation Phagocytosis ([3]; 5 x 10^-8 M) [%]	% Differentiation NBT Reduction ([4]; 1 x 10^-7 M) [%]	% Differentiation NBT Reduction ([4]; 1 x 10^-8 M) [%]	% Differentiation NBT Reduction ([4]; 2 x 10^-8 M) [%]	% Differentiation NBT Reduction ([4]; 5 x 10^-8 M) [%]	restoration of bone mass [5]	Total Femur Ash (mg ± SEM) [5] [mg]	Ash (% ± SEM) [5] [%]	Bone Mobilization Serum Ca (vitamin D-deficient rat [6]; 325 pmol)	activity in mobilizing calcium from bone (vitamin D-deficient rat [6])	Ca Transport S/M Ratio (vitamin D-deficient rat [7]; 325 pmol)	also measured
C=C1/C(=C\C=C2/CCC[C@]3(C)[C@@H]([C@H](C)/C=C/[C@@H](C)C(C)(C)O)CC[C@@H]23)C[C@@H](O)C[C@@H]1O [1α,25-Dihydroxy-24-epi-vitamin D2, 1α,25-dihydroxy-24-epi-vitamin D2]	40-50%	80%	81 ± 3	40 ± 3	49 ± 2	62 ± 3	80 ± 3	39 ± 3	48 ± 3	64 ± 3							times less active than the 1α,25-dihydroxyvitamin D3 standard [1]: about 5; differentiation ([2]; 5 x 10^-8M): > 60%
C=C1/C(=C\C=C2/CCC[C@]3(C)[C@@H]([C@H](C)CCCC(C)(C)O)CC[C@@H]23)C[C@@H](O)C[C@@H]1O [1α,25-Dihydroxy-vitamin D3, 1α,25-dihydroxyvitamin D3]			89 ± 3	67 ± 3			87 ± 2	64 ± 2			restored some bone mass						differentiation ([2]; 10^-8M, 4-day trial period, both NBT-reduction and phagocytosis assay): 64-67%
C=C1/C(=C\C=C2/CCC[C@]3(C)[C@@H]([C@H](C)/C=C/[C@@H](C)C(C)C)CC[C@@H]23)C[C@@H](O)C[C@@H]1O [1α-Hydroxy-24-epi-vitamin D2, 24-epi-1α-hydroxyvitamin D2]	does not elicit a significant differentiation response	16-20%	16 ± 2	4 ± 2	6 ± 3	9 ± 1	22 ± 2	4 ± 2	6 ± 2	14 ± 2		400	60.5 ± 0.5	3.9 ± 0.39^b mg %	no activity	4.3 ± 0.42^a	Total Femur Ash (mg ± SEM) ([5]; listed as 24-epi-1α-OH-D2): 400 ± 16.4^d mg; Bone Mobilization Serum Ca (vitamin D-deficient rat [6]; 650 pmol): 4.1 ± 0.23^b mg %; Ca Transport S/M Ratio (vitamin D-deficient rat [7]; 650 pmol): 4.4 ± 0.70^a; activity in stimulating intestinal calcium transport (vitamin D-deficient rat [7]; result in words, data of Table 1): high activity
C=C1/C(=C\C=C2/CCC[C@]3(C)[C@@H]([C@H](C)/C=C/[C@H](C)C(C)C)CC[C@@H]23)C[C@@H](O)C[C@@H]1O [1α-Hydroxy-vitamin D2, 1α-hydroxyvitamin D2]												377	58.6 ± 0.55	5.3 ± 0.15^a mg %	strongly active	5.4 ± 0.37^a	Total Femur Ash (mg ± SEM) ([5]; listed as 1α-OH-D2): 377 ± 15.2^c mg
C=C1/C(=C\C=C2/CCC[C@]3(C)[C@@H]([C@H](C)CCCC(C)C)CC[C@@H]23)C[C@@H](O)C[C@@H]1O [1α-hydroxyvitamin D3]											restored some bone mass						
